Data: PubChem BioAssay (NCI)
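Method: 48-hour compound exposure of cells in 96-well plates, five concentrations, linear interpolation of endpoints. TGI marks complete inhibition of growth.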

Tests used:
Experiment in all cases: NCI anticancer screen, dose series, 48 h
CCRF-CEM leukemia = tested on: CCRF-CEM leukemia
EKVX NSCLC = tested on: EKVX NSCLC
HL-60(TB) leukemia = tested on: HL-60(TB) leukemia
HOP-92 NSCLC = tested on: HOP-92 NSCLC
IGROV1 ovarian = tested on: IGROV1 ovarian
KM12 colon = tested on: KM12 colon
LOX IMVI melanoma = tested on: LOX IMVI melanoma
MDA-N = tested on: MDA-N
NCI-H226 lung = tested on: NCI-H226 lung
NCI-H23 lung = tested on: NCI-H23 lung
NCI-H522 lung = tested on: NCI-H522 lung
SF-295 CNS = tested on: SF-295 CNS
SK-MEL-28 melanoma = tested on: SK-MEL-28 melanoma
SK-MEL-5 melanoma = tested on: SK-MEL-5 melanoma
SK-OV-3 ovarian = tested on: SK-OV-3 ovarian
SN12C renal = tested on: SN12C renal
SNB-19 CNS = tested on: SNB-19 CNS
SR leukemia = tested on: SR leukemia
U251 CNS = tested on: U251 CNS
UACC-257 melanoma = tested on: UACC-257 melanoma

| SMILES | TGI (CCRF-CEM leukemia) | TGI (EKVX NSCLC) | TGI (HL-60(TB) leukemia) | TGI (HOP-92 NSCLC) | TGI (IGROV1 ovarian) | TGI (KM12 colon) | TGI (LOX IMVI melanoma) | TGI (MDA-N) | TGI (NCI-H226 lung) | TGI (NCI-H23 lung) | TGI (NCI-H522 lung) | TGI (SF-295 CNS) | TGI (SK-MEL-28 melanoma) | TGI (SK-MEL-5 melanoma) | TGI (SK-OV-3 ovarian) | TGI (SN12C renal) | TGI (SNB-19 CNS) | TGI (SR leukemia) | TGI (U251 CNS) | TGI (UACC-257 melanoma) |
| --- | --- | --- | --- | --- | --- | --- | --- | --- | --- | --- | --- | --- | --- | --- | --- | --- | --- | --- | --- | --- |
| CCOC(=O)c1c(C)noc1/N=N/N(CCO)CCO | 59.3 µM | > 100 µM | > 100 µM | 88.5 µM | > 100 µM | > 100 µM | > 100 µM | > 100 µM | 63.5 µM | > 100 µM | 70.7 µM | > 100 µM | > 100 µM | 32.5 µM | > 100 µM | > 100 µM | > 100 µM | 66.1 µM | > 100 µM | 86.5 µM |
| COc1cc(OC)cc(-n2c(N)c(-c3nc4ccccc4s3)c3ccc([N+](=O)[O-])cc3c2=O)c1 | > 100 µM | – | 13 µM | 15.8 µM | – | > 100 µM | > 100 µM | > 100 µM | > 100 µM | > 100 µM | > 100 µM | > 100 µM | > 100 µM | > 100 µM | > 100 µM | 82.8 µM | > 100 µM | 89.7 µM | > 100 µM | > 100 µM |
| CN(CCCCN1CCCC1)CCCCN(C)C(=O)Cc1ccc(Cl)c(Cl)c1 | 20.7 µM | 37 µM | 36.1 µM | 17.5 µM | 37 µM | 26.1 µM | 25.2 µM | 12.2 µM | 41.8 µM | 37.3 µM | 27.7 µM | 38 µM | 3.88 µM | 19.9 µM | 47.2 µM | 36.8 µM | 36.8 µM | 14.3 µM | 27.8 µM | 6.22 µM |
| CN(C)/N=C1\C=C2CC[C@H](O[Si](C)(C)C(C)(C)C)[C@@]2(C)CC1 | 44 µM | 38.6 µM | 26.5 µM | 28.5 µM | 41 µM | 30.9 µM | 34.4 µM | 41.4 µM | 35 µM | 52.4 µM | 26.3 µM | 30 µM | 29.5 µM | 24.9 µM | 68.2 µM | – | 31.9 µM | 40.9 µM | 29.7 µM | 30.6 µM |
| O=C(/C=c1\oc(=O)/c(=C/C(=O)c2ccc(Cl)cc2)oc1=O)c1ccc(Cl)cc1 | > 100 µM | > 100 µM | > 100 µM | > 100 µM | > 100 µM | > 100 µM | > 100 µM | > 100 µM | > 100 µM | > 100 µM | 72.9 µM | > 100 µM | > 100 µM | > 100 µM | > 100 µM | > 100 µM | > 100 µM | > 100 µM | > 100 µM | > 100 µM |
| O=c1oc2ccccc2cc1-c1csc(Nc2cc(Cl)cc(Cl)c2)n1 | > 100 µM | > 100 µM | > 100 µM | > 58.3 µM | 36 µM | > 58.6 µM | 7.62 µM | > 100 µM | > 56.1 µM | > 56.7 µM | 96.6 µM | > 44.5 µM | 59 µM | > 100 µM | > 49.5 µM | > 44.8 µM | > 52.8 µM | > 100 µM | 11.7 µM | > 100 µM |
| CN(C)Cc1cc(N=Nc2ccccc2Cl)ccc1O | 54.2 µM | > 100 µM | 29.3 µM | > 100 µM | > 100 µM | 75.5 µM | 25.3 µM | 33.4 µM | 40 µM | 83.9 µM | 23.5 µM | 41.2 µM | 32.3 µM | 24.6 µM | > 100 µM | > 100 µM | > 100 µM | > 100 µM | 59.3 µM | 46.3 µM |
| c1cc2[nH]snc2c2cncc12 | > 100 µM | > 100 µM | > 100 µM | 85.7 µM | > 100 µM | > 100 µM | > 100 µM | > 100 µM | > 100 µM | > 100 µM | > 100 µM | > 100 µM | > 100 µM | > 100 µM | > 100 µM | > 100 µM | – | > 100 µM | – | > 100 µM |
| CSC1=C(C#N)C(=O)N(c2ccc(Cl)cc2)C(=O)C1C#N (stereo unspecified) | > 100 µM | > 100 µM | > 100 µM | 76.9 µM | > 100 µM | – | > 100 µM | > 100 µM | > 100 µM | > 100 µM | > 100 µM | > 100 µM | > 100 µM | > 100 µM | > 100 µM | > 100 µM | > 100 µM | > 100 µM | > 100 µM | > 100 µM |
| CCN(CC)CCOc1ccc(N2Cc3ccccc3C2=O)cc1 | > 10 µM | > 10 µM | > 10 µM | > 10 µM | > 10 µM | – | > 10 µM | > 10 µM | > 10 µM | > 10 µM | > 10 µM | > 10 µM | > 10 µM | > 10 µM | > 10 µM | > 10 µM | > 10 µM | > 10 µM | > 10 µM | > 10 µM |
| N#C/C(=C\c1ccc(F)cc1)c1nc2ccccc2c(=O)[nH]1 | > 100 µM | > 100 µM | > 100 µM | > 100 µM | > 100 µM | > 100 µM | > 100 µM | > 100 µM | > 100 µM | – | > 100 µM | > 100 µM | > 100 µM | – | > 100 µM | > 100 µM | > 100 µM | > 100 µM | > 100 µM | > 100 µM |
